Results as given in ChEMBL document CHEMBL5463725, “Data for DCP probe BAY-277” (2023).

Key:
[1] = target: Sodium-dependent dopamine transporter (Homo sapiens, UniProt Q01959); test: GPCRScan assay: inhibition of DAT; set-up: radioligand conc. used [nm] 3.6 – 16.0, parental cells stable HEK
[2] = target: Carbonic anhydrase 2 (Homo sapiens) (UniProt P00918); test: Inhibition of Carbonic Anhydrase II at 10.0 µM in the Eurofins Panlabs Safety Screen; conditions: Compound concentration 10.0 uM
[3] = target: T1, Muscarinic acetylcholine receptor M2 (Homo sapiens, UniProt P08172); test: GPCRScan assay: inhibition of M2; set-up: radioligand conc. used [nm] 0.2 – 1.0, parental cells stable CHO
T1 sequence (P08172 whole entry): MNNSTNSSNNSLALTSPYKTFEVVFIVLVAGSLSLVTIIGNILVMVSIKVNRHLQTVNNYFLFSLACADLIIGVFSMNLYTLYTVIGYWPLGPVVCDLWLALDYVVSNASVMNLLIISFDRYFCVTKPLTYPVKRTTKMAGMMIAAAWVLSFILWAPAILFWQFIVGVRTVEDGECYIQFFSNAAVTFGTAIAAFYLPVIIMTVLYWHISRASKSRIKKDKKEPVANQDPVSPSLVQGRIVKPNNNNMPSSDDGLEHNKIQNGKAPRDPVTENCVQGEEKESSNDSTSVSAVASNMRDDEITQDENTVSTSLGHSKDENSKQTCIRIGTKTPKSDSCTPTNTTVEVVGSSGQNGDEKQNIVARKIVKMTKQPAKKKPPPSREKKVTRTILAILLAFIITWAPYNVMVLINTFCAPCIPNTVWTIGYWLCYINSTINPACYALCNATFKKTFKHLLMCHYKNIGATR

[4] = target: 5-hydroxytryptamine receptor 2B (Homo sapiens) (UniProt P41595); conditions: Compound concentration 10.0 uM
[5] = target: Leukotriene C4 synthase (Cavia porcellus) (UniProt A6XA80); test: Inhibition of Leukotriene LTC4 Synthase at 10.0 µM in the Eurofins Panlabs Safety Screen; conditions: Compound concentration 10.0 uM
[6] = target: D(1A) dopamine receptor (Homo sapiens) (UniProt P21728); test: Inhibition of Dopamine D1 at 10.0 µM in the Eurofins Panlabs Safety Screen; conditions: Compound concentration 10.0 uM
[7] = target: Purinergic P2Y (Rattus norvegicus) (UniProt O35811+Q9EPX4+P49651+Q63371+P41232+O35881+Q6GUG4); test: Inhibition of Purinergic P2Y, non-selective at 10.0 µM in the Eurofins Panlabs Safety Screen; assay type: protein assay; conditions: Compound concentration 10.0 uM
[8] = target: Beta-3 adrenergic receptor (Homo sapiens) (UniProt P13945); conditions: Compound concentration 10.0 uM
[9] = target: TGF-beta receptor type-2 (Homo sapiens) (UniProt P37173); test: Inhibition of TGFBR2(h) at 10.0 µM in the Eurofins Kinase panel; conditions: Compound concentration 10.0 uM
[10] = target: T2, Muscarinic acetylcholine receptor M3 (Homo sapiens, UniProt P20309); test: GPCRScan assay: inhibition of M3; set-up: radioligand conc. used [nm] 0.3 – 1.0, parental cells stable CHO
Target sequence in this assay (P20309 whole entry): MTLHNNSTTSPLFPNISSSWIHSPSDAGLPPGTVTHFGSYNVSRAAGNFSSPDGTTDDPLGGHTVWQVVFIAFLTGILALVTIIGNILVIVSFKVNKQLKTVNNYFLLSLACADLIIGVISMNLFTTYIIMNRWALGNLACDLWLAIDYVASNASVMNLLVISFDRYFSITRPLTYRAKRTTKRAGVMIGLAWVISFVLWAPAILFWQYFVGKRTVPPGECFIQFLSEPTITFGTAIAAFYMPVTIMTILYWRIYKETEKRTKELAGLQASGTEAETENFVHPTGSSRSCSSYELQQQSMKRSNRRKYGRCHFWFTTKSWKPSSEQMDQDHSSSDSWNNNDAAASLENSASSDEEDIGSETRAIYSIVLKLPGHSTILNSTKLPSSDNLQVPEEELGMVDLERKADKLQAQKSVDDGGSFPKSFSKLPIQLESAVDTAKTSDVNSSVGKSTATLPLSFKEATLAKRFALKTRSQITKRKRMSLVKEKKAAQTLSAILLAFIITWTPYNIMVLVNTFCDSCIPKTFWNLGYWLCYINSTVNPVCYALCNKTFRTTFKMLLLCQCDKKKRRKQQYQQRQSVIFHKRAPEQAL

[11] = target: Beta-2 adrenergic receptor (Homo sapiens) (UniProt P07550); conditions: Compound concentration 10.0 uM
[12] = target: Monoamine oxidase A (MAO-A) (Homo sapiens, UniProt P21397); test: Inhibition of Monoamine Oxidase MAO-A at 10.0 µM in the Eurofins Panlabs Safety Screen; conditions: compound concentration 10 uM
[13] = target: Glutamate NMDA receptor (Rattus norvegicus) (UniProt P35439+Q00959+Q00960+Q00961+Q62645+Q8VHN2+Q9R1M7); test: Inhibition of Glutamate, NMDA, Agonism at 10.0 µM in the Eurofins Panlabs Safety Screen; assay type: protein-complex assay; conditions: Compound concentration 10.0 uM
[14] = target: Beta-1 adrenergic receptor (Homo sapiens) (UniProt P08588); test: Inhibition of Adrenergic beta1 at 10.0 µM in the Eurofins Panlabs Safety Screen; conditions: Compound concentration 10.0 uM
[15] = target: T3, Muscarinic acetylcholine receptor M1 (Homo sapiens, UniProt P11229); test: GPCRScan assay: inhibition of M1; set-up: radioligand conc. used [nm] 0.3 – 1.2, parental cells stable CHO
T3 sequence (P11229 whole entry): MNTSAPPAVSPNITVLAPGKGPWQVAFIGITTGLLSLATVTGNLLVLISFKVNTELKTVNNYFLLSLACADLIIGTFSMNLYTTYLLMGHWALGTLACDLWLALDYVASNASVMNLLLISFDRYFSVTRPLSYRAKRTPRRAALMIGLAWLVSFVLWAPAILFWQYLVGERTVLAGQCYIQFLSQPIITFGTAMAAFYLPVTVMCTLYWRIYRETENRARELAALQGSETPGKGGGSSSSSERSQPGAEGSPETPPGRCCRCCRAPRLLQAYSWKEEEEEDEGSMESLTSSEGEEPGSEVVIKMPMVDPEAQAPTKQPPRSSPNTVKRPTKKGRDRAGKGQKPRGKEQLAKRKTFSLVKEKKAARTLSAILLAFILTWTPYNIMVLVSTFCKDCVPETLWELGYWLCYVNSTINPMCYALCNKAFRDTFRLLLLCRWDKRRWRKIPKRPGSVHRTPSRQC

[16] = target: cGMP-inhibited 3',5'-cyclic phosphodiesterase 3A (Homo sapiens) (UniProt Q14432); test: Inhibition of Phosphodiesterase PDE3A at 10.0 µM in the Eurofins Panlabs Safety Screen; conditions: Compound concentration 10.0 uM
[17] = target: Sodium/potassium-transporting ATPase (Sus scrofa) (UniProt P05027+P05024+D2WKD8+D2WKD7+F1ST41); test: Inhibition of ATPase, Na+/K+, Heart, Pig at 10.0 µM in the Eurofins Panlabs Safety Screen; assay type: protein-complex assay; conditions: Compound concentration 10.0 uM
[18] = target: Histamine H1 receptor (Homo sapiens) (UniProt P35367); test: Inhibition of Histamine H1 at 10.0 µM in the Eurofins Panlabs Safety Screen; conditions: Compound concentration 10.0 uM
[19] = target: 5-hydroxytryptamine receptor 1B (Homo sapiens) (UniProt P28222); conditions: Compound concentration 10.0 uM
[20] = target: T4, Muscarinic acetylcholine receptor M2 (Homo sapiens) (UniProt P08172); conditions: Compound concentration 10.0 uM
T4 sequence (whole entry): T1 sequence (P08172 whole entry)

[21] = target: Mu-type opioid receptor (Homo sapiens) (UniProt P35372); test: Inhibition of Opiate µ(OP3, MOP) at 10.0 µM in the Eurofins Panlabs Safety Screen; conditions: Compound concentration 10.0 uM
[22] = target: T2, Muscarinic acetylcholine receptor M3; conditions: Compound concentration 10.0 uM
Target sequence in this assay (P20309 whole entry, looked up): as the sequence (P20309 whole entry) above

[23] = target: Thromboxane-A synthase (Homo sapiens) (UniProt P24557); test: Inhibition of Thromboxane Synthase at 10.0 µM in the Eurofins Panlabs Safety Screen; conditions: Compound concentration 10.0 uM
[24] = target: GABA-A receptor; anion channel (Rattus norvegicus) (UniProt O09028+P15431+P18506+P18508+P19969+P20236+P23574+P23576+P28471+P28473+P30191+P62813+P63079+P63138+Q91ZM7+Q9ES14); test: Inhibition of GABAA, Chloride Channel, TBOB at 10.0 µM in the Eurofins Panlabs Safety Screen; assay type: protein-complex assay; conditions: Compound concentration 10.0 uM
[25] = target: Dual specificity protein kinase CLK1 (Homo sapiens) (UniProt P49759); test: Inhibition of CLK1(h) at 10.0 µM in the Eurofins Kinase panel; conditions: Compound concentration 10.0 uM
[26] = target: Androgen receptor (Homo sapiens) (UniProt P10275); test: Inhibition of Androgen (Testosterone) at 10.0 µM in the Eurofins Panlabs Safety Screen; conditions: Compound concentration 10.0 uM

Sequence of 5-hydroxytryptamine receptor 1B (Homo sapiens) (P28222 whole entry): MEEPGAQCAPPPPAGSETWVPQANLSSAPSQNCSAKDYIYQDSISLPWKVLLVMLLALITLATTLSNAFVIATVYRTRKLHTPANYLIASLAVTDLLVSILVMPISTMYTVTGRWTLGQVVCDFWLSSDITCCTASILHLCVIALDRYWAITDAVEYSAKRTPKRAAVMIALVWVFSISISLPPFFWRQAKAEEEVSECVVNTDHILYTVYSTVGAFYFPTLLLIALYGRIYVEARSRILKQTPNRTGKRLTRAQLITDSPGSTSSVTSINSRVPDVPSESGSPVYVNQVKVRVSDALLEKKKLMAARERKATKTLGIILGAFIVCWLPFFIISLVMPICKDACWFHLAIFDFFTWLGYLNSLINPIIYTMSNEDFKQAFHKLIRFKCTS
Sequence of Sodium-dependent dopamine transporter (Q01959 whole entry): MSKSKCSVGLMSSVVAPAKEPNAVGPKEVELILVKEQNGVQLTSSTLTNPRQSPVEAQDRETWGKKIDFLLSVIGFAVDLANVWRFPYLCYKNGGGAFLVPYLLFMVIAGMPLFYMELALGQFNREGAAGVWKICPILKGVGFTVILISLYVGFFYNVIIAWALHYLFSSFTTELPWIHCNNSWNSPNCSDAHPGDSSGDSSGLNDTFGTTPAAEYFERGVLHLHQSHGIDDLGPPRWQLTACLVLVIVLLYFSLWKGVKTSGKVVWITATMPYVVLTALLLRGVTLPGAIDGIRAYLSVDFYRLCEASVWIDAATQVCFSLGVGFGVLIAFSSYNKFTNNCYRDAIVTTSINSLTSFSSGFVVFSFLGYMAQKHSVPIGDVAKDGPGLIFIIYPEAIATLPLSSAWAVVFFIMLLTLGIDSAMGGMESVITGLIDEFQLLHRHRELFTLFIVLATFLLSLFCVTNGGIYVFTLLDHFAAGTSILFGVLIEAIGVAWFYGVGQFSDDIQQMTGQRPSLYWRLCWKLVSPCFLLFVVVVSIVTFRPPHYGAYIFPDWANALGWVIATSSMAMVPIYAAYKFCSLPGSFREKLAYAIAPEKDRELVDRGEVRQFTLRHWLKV
Sequence of Beta-3 adrenergic receptor (Homo sapiens) (P13945 whole entry, looked up): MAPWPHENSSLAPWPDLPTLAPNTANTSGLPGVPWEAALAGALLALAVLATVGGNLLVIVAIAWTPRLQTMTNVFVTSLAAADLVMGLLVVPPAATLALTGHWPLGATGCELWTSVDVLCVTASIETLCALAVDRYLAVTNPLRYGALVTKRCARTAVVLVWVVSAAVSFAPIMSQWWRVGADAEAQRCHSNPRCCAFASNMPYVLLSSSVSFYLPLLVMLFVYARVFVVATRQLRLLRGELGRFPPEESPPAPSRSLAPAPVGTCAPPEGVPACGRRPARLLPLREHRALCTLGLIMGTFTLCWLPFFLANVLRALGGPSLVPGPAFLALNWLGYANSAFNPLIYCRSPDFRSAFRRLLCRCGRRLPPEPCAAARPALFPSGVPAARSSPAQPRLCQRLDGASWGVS
Sequence of Beta-2 adrenergic receptor (Homo sapiens) (P07550 whole entry, looked up): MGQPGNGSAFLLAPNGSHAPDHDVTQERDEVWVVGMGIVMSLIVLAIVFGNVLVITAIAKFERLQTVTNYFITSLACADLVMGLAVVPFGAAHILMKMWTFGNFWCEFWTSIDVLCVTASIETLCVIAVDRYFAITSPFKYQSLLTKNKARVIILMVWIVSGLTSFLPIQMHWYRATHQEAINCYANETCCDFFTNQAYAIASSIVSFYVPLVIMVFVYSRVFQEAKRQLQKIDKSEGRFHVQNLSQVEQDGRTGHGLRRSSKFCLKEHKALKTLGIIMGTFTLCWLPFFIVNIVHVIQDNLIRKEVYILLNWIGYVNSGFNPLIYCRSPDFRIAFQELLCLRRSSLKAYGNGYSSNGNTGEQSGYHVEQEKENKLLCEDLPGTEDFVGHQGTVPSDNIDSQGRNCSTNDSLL
Sequence of 5-hydroxytryptamine receptor 2B (Homo sapiens) (P41595 whole entry): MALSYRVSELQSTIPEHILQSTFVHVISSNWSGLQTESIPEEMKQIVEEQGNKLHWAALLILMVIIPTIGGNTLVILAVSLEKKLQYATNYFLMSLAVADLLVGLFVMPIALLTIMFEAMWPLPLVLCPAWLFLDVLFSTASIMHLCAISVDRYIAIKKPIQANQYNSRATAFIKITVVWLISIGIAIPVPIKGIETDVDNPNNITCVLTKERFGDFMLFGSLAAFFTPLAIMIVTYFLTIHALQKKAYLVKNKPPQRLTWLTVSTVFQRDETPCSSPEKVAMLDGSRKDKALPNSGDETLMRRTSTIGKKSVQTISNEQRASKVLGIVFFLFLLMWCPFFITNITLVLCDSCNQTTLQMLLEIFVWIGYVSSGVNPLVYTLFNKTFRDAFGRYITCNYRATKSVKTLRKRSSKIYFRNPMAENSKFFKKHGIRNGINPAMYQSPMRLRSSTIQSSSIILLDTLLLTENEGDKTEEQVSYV
Sequence of cGMP-inhibited 3',5'-cyclic phosphodiesterase 3A (Homo sapiens) (Q14432 whole entry): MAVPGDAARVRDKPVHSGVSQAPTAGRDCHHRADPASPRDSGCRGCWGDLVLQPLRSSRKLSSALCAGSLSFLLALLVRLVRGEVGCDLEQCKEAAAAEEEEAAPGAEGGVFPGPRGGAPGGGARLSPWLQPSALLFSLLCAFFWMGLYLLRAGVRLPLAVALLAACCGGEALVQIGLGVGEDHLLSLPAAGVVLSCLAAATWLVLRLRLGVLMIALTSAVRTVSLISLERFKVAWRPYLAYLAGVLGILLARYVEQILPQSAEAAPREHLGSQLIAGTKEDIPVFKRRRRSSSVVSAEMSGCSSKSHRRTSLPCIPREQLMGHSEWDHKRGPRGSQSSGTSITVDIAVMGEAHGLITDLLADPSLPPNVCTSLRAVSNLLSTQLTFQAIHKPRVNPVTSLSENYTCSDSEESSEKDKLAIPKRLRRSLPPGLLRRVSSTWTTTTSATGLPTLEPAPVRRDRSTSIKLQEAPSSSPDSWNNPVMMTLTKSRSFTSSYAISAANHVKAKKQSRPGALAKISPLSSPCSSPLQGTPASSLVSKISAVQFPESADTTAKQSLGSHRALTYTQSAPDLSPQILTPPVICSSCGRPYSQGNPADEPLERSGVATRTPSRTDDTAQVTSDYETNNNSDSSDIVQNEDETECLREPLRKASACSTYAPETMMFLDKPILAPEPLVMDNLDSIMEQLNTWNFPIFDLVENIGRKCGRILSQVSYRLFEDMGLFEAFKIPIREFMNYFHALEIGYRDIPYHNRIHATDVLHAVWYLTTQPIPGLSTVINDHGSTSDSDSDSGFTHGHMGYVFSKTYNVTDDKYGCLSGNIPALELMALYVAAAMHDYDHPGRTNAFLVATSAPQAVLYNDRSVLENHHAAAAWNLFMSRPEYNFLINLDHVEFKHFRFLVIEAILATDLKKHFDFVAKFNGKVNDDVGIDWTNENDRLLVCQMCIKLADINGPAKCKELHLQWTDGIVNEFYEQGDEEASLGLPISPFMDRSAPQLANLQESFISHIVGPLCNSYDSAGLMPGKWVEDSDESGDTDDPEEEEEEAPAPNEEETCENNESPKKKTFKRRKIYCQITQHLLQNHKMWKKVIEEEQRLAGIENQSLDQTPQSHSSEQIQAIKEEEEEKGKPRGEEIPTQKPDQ
Sequence of D(1A) dopamine receptor (Homo sapiens) (P21728 whole entry): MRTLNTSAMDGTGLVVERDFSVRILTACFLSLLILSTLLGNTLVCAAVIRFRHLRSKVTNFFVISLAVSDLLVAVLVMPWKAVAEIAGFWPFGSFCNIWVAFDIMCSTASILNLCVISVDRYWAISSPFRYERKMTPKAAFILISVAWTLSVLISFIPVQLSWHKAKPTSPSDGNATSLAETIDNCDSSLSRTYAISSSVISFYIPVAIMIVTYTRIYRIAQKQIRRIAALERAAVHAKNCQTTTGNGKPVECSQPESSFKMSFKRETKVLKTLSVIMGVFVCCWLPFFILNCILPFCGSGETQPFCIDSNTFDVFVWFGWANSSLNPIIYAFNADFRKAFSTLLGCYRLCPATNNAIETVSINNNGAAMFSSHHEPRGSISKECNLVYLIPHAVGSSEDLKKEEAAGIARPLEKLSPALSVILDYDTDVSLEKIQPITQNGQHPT
Sequence of Mu-type opioid receptor (Homo sapiens) (P35372 whole entry): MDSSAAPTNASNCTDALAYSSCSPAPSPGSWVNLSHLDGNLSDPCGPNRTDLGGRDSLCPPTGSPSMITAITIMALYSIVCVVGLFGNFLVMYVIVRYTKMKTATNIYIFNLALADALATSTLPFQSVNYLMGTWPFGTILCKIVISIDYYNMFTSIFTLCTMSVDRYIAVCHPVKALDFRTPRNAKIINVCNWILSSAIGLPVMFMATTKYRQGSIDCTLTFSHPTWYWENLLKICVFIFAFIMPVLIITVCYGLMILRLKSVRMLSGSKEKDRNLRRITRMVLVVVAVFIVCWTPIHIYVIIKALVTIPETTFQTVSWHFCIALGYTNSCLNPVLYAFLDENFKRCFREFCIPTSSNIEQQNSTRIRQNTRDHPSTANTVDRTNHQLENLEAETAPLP

| Compound | Ki ([1]; read-out: Ki) | Ki ([1]; read-out: pKi (converted)) | inhibition [2] | Ki ([3]; read-out: Ki) | Ki ([3]; read-out: pKi (converted)) | inhibition [4] | inhibition [5] | inhibition [6] | inhibition [7] | inhibition [8] | inhibition [9] | Ki ([10]; read-out: Ki) | Ki ([10]; read-out: pKi (converted)) | inhibition [11] | inhibition at 10 µM [12] | inhibition [13] | inhibition [14] | Ki ([15]; read-out: Ki) | Ki ([15]; read-out: pKi (converted)) | inhibition [16] | also measured |
| --- | --- | --- | --- | --- | --- | --- | --- | --- | --- | --- | --- | --- | --- | --- | --- | --- | --- | --- | --- | --- | --- |
| O=C1NCCCC1N1Cc2cc(C3CCN(C(=O)CCCCCN4CCC(c5ccc(Oc6nn7cnnc7c7c6CCCC7)cc5)CC4)CC3)ccc2C1=O (stereo not given) | 4810 nM | 4470 nM | -8% | 1070 nM | 1050 nM | -7.97% | 15% | 20% | 12% | 7.19% | 11.3% | 1890 nM | 1860 nM | -7.69% | 18% | 0% | 10% | 2190 nM | 2190 nM | 6% | inhibition [17]: 1%; inhibition [18]: 22%; inhibition [19]: 14.2%; inhibition [20]: 57.2%; inhibition [21]: 16%; inhibition [22]: 51.5%; inhibition [23]: 23%; inhibition [24]: -5%; inhibition [25]: 16.7%; inhibition [26]: -2% |
| O=C1CCC(N2Cc3cc(C4CCN(C(=O)CCCCCN5CCC(c6ccc(Oc7nn8cnnc8c8c7CCCC8)cc6)CC5)CC4)ccc3C2=O)C(=O)N1 (stereo not given) | 3730 nM | 3390 nM | -8% | 677 nM | 676 nM | 19.9% | 2% | 16% | 4% | 27.8% | 12.7% | 2260 nM | 2090 nM | 2.82% | 16% | 21% | 0% | 1670 nM | 1660 nM | 6% | inhibition [17]: -7%; inhibition [18]: 23%; inhibition [19]: 21.9%; inhibition [20]: 64.3%; inhibition [21]: 19%; inhibition [22]: 55%; inhibition [23]: 10%; inhibition [24]: -6%; inhibition [25]: 13.9%; inhibition [26]: -6% |
